Source: PubChem BioAssay AID2060508 (Molecular Pharmacology Branch, DTP, NCI, 2025)

test system: 454973-116-R2-J3-PDC spheroids, viability, % test/control; test: Anticancer human tumor 454973-116-R2-J3-PDC patient-derived pancreatic carcinoma cell line growth inhibition [GQUAD]; settings: second compound 0.1 µM; first compound 1 µM; stronger effect = lower value; spheroids with HUVEC and MSC
How it was run: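 Multi-cell-type spheroids of tumor cells with HUVEC and mesenchymal stem cells, treated with drug combinations. Concentrations descend in half-log steps from near clinical Cmax, or from 10 microM where Cmax is unknown; viability read-out.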
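Also: spheroids exposed to compounds for seven days; 100% = DMSO vehicle control viability.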

SMILES	viability, T/C
CC1COCCN1c1cc(C2(S(C)(=N)=O)CC2)nc(-c2ccnc3[nH]ccc23)n1 (configuration not stated) + Cc1[nH]c2ccc(F)cc2c1-c1nc2c3cccnc3c3ncccc3c2[nH]1	107%
COc1ccc([C@@H](O)c2cc(-c3ncnc4cc(N5CCOCC5)ccc34)c(F)cc2Cl)nn1 + Cc1[nH]c2ccc(F)cc2c1-c1nc2c3cccnc3c3ncccc3c2[nH]1	85.4%

same assay, conditions: second compound 0.1 µM; first compound 3.16 µM; stronger effect = lower value; spheroids with HUVEC and MSC

SMILES	viability, T/C
CC(C)(O)C1CCC(Nc2ccc3ncc(-c4cccc(C(F)(F)F)c4)n3n2)CC1 (configuration not stated) + CN(C)c1ccc(Nc2c3ccc(NC(=O)CCN4CCCC4)cc3nc3cc(NC(=O)CCN4CCCC4)ccc23)cc1	15.6%
COc1ncnc(C2CC2)c1-c1ncc2cnn(Cc3ccc(-c4nc(C(F)(F)F)cn4C(C)C)cc3)c2n1 + CN(C)c1ccc(Nc2c3ccc(NC(=O)CCN4CCCC4)cc3nc3cc(NC(=O)CCN4CCCC4)ccc23)cc1	84.8%
O=C(NO)c1cnc(N2CCN(S(=O)(=O)c3ccc4ccccc4c3)CC2)nc1 + CN(C)c1ccc(Nc2c3ccc(NC(=O)CCN4CCCC4)cc3nc3cc(NC(=O)CCN4CCCC4)ccc23)cc1	0.1%
CC(C)n1c(=O)n(C)c2cnc3cc(F)c(-c4ccc(OCCCN5CCCCC5)nc4)cc3c21 + Cc1[nH]c2ccc(F)cc2c1-c1nc2c3cccnc3c3ncccc3c2[nH]1	92.5%
CC1COCCN1c1cc(-c2ccnn2C)c2ccnc(-c3ccn[nH]3)c2n1 (configuration not stated) + Cc1[nH]c2ccc(F)cc2c1-c1nc2c3cccnc3c3ncccc3c2[nH]1	24%
CC1COCCN1c1cc(C2(S(C)(=N)=O)CC2)nc(-c2ccnc3[nH]ccc23)n1 (configuration not stated) + Cc1[nH]c2ccc(F)cc2c1-c1nc2c3cccnc3c3ncccc3c2[nH]1	68.7%
COc1ccc([C@@H](O)c2cc(-c3ncnc4cc(N5CCOCC5)ccc34)c(F)cc2Cl)nn1 + Cc1[nH]c2ccc(F)cc2c1-c1nc2c3cccnc3c3ncccc3c2[nH]1	75%

same assay, conditions: second compound 0.1 µM; first compound 10 µM; stronger effect = lower value; spheroids with HUVEC and MSC

SMILES	viability, T/C
CC(C)(O)C1CCC(Nc2ccc3ncc(-c4cccc(C(F)(F)F)c4)n3n2)CC1 (configuration not stated) + CN(C)c1ccc(Nc2c3ccc(NC(=O)CCN4CCCC4)cc3nc3cc(NC(=O)CCN4CCCC4)ccc23)cc1	34.5%
COc1ncnc(C2CC2)c1-c1ncc2cnn(Cc3ccc(-c4nc(C(F)(F)F)cn4C(C)C)cc3)c2n1 + CN(C)c1ccc(Nc2c3ccc(NC(=O)CCN4CCCC4)cc3nc3cc(NC(=O)CCN4CCCC4)ccc23)cc1	95.4%
O=C(NO)c1cnc(N2CCN(S(=O)(=O)c3ccc4ccccc4c3)CC2)nc1 + CN(C)c1ccc(Nc2c3ccc(NC(=O)CCN4CCCC4)cc3nc3cc(NC(=O)CCN4CCCC4)ccc23)cc1	0.19%
CC(C)n1c(=O)n(C)c2cnc3cc(F)c(-c4ccc(OCCCN5CCCCC5)nc4)cc3c21 + Cc1[nH]c2ccc(F)cc2c1-c1nc2c3cccnc3c3ncccc3c2[nH]1	63.7%
CC1COCCN1c1cc(-c2ccnn2C)c2ccnc(-c3ccn[nH]3)c2n1 (configuration not stated) + Cc1[nH]c2ccc(F)cc2c1-c1nc2c3cccnc3c3ncccc3c2[nH]1	26.4%
CC1COCCN1c1cc(C2(S(C)(=N)=O)CC2)nc(-c2ccnc3[nH]ccc23)n1 (configuration not stated) + Cc1[nH]c2ccc(F)cc2c1-c1nc2c3cccnc3c3ncccc3c2[nH]1	27.9%
COc1ccc([C@@H](O)c2cc(-c3ncnc4cc(N5CCOCC5)ccc34)c(F)cc2Cl)nn1 + Cc1[nH]c2ccc(F)cc2c1-c1nc2c3cccnc3c3ncccc3c2[nH]1	55.3%

same assay, conditions: second compound 0.316 µM; first compound 0.0316 µM; stronger effect = lower value; spheroids with HUVEC and MSC

SMILES	viability, T/C
CC(C)(O)C1CCC(Nc2ccc3ncc(-c4cccc(C(F)(F)F)c4)n3n2)CC1 (configuration not stated) + CN(C)c1ccc(Nc2c3ccc(NC(=O)CCN4CCCC4)cc3nc3cc(NC(=O)CCN4CCCC4)ccc23)cc1	95.3%
COc1ncnc(C2CC2)c1-c1ncc2cnn(Cc3ccc(-c4nc(C(F)(F)F)cn4C(C)C)cc3)c2n1 + CN(C)c1ccc(Nc2c3ccc(NC(=O)CCN4CCCC4)cc3nc3cc(NC(=O)CCN4CCCC4)ccc23)cc1	94.2%
O=C(NO)c1cnc(N2CCN(S(=O)(=O)c3ccc4ccccc4c3)CC2)nc1 + CN(C)c1ccc(Nc2c3ccc(NC(=O)CCN4CCCC4)cc3nc3cc(NC(=O)CCN4CCCC4)ccc23)cc1	86%
CC(C)n1c(=O)n(C)c2cnc3cc(F)c(-c4ccc(OCCCN5CCCCC5)nc4)cc3c21 + Cc1[nH]c2ccc(F)cc2c1-c1nc2c3cccnc3c3ncccc3c2[nH]1	110%
CC1COCCN1c1cc(-c2ccnn2C)c2ccnc(-c3ccn[nH]3)c2n1 (configuration not stated) + Cc1[nH]c2ccc(F)cc2c1-c1nc2c3cccnc3c3ncccc3c2[nH]1	97.8%
CC1COCCN1c1cc(C2(S(C)(=N)=O)CC2)nc(-c2ccnc3[nH]ccc23)n1 (configuration not stated) + Cc1[nH]c2ccc(F)cc2c1-c1nc2c3cccnc3c3ncccc3c2[nH]1	99.7%
COc1ccc([C@@H](O)c2cc(-c3ncnc4cc(N5CCOCC5)ccc34)c(F)cc2Cl)nn1 + Cc1[nH]c2ccc(F)cc2c1-c1nc2c3cccnc3c3ncccc3c2[nH]1	99.3%

same assay, conditions: second compound 0.316 µM; first compound 0.1 µM; stronger effect = lower value; spheroids with HUVEC and MSC

SMILES	viability, T/C
CC(C)(O)C1CCC(Nc2ccc3ncc(-c4cccc(C(F)(F)F)c4)n3n2)CC1 (configuration not stated) + CN(C)c1ccc(Nc2c3ccc(NC(=O)CCN4CCCC4)cc3nc3cc(NC(=O)CCN4CCCC4)ccc23)cc1	90.3%
COc1ncnc(C2CC2)c1-c1ncc2cnn(Cc3ccc(-c4nc(C(F)(F)F)cn4C(C)C)cc3)c2n1 + CN(C)c1ccc(Nc2c3ccc(NC(=O)CCN4CCCC4)cc3nc3cc(NC(=O)CCN4CCCC4)ccc23)cc1	104%
O=C(NO)c1cnc(N2CCN(S(=O)(=O)c3ccc4ccccc4c3)CC2)nc1 + CN(C)c1ccc(Nc2c3ccc(NC(=O)CCN4CCCC4)cc3nc3cc(NC(=O)CCN4CCCC4)ccc23)cc1	83.4%
CC(C)n1c(=O)n(C)c2cnc3cc(F)c(-c4ccc(OCCCN5CCCCC5)nc4)cc3c21 + Cc1[nH]c2ccc(F)cc2c1-c1nc2c3cccnc3c3ncccc3c2[nH]1	99%
CC1COCCN1c1cc(-c2ccnn2C)c2ccnc(-c3ccn[nH]3)c2n1 (configuration not stated) + Cc1[nH]c2ccc(F)cc2c1-c1nc2c3cccnc3c3ncccc3c2[nH]1	65.8%
CC1COCCN1c1cc(C2(S(C)(=N)=O)CC2)nc(-c2ccnc3[nH]ccc23)n1 (configuration not stated) + Cc1[nH]c2ccc(F)cc2c1-c1nc2c3cccnc3c3ncccc3c2[nH]1	110%
COc1ccc([C@@H](O)c2cc(-c3ncnc4cc(N5CCOCC5)ccc34)c(F)cc2Cl)nn1 + Cc1[nH]c2ccc(F)cc2c1-c1nc2c3cccnc3c3ncccc3c2[nH]1	106%

same assay, conditions: second compound 0.316 µM; first compound 0.316 µM; stronger effect = lower value; spheroids with HUVEC and MSC

SMILES	viability, T/C
CC(C)(O)C1CCC(Nc2ccc3ncc(-c4cccc(C(F)(F)F)c4)n3n2)CC1 (configuration not stated) + CN(C)c1ccc(Nc2c3ccc(NC(=O)CCN4CCCC4)cc3nc3cc(NC(=O)CCN4CCCC4)ccc23)cc1	83.9%
COc1ncnc(C2CC2)c1-c1ncc2cnn(Cc3ccc(-c4nc(C(F)(F)F)cn4C(C)C)cc3)c2n1 + CN(C)c1ccc(Nc2c3ccc(NC(=O)CCN4CCCC4)cc3nc3cc(NC(=O)CCN4CCCC4)ccc23)cc1	102%
O=C(NO)c1cnc(N2CCN(S(=O)(=O)c3ccc4ccccc4c3)CC2)nc1 + CN(C)c1ccc(Nc2c3ccc(NC(=O)CCN4CCCC4)cc3nc3cc(NC(=O)CCN4CCCC4)ccc23)cc1	26.8%
CC(C)n1c(=O)n(C)c2cnc3cc(F)c(-c4ccc(OCCCN5CCCCC5)nc4)cc3c21 + Cc1[nH]c2ccc(F)cc2c1-c1nc2c3cccnc3c3ncccc3c2[nH]1	111%
CC1COCCN1c1cc(-c2ccnn2C)c2ccnc(-c3ccn[nH]3)c2n1 (configuration not stated) + Cc1[nH]c2ccc(F)cc2c1-c1nc2c3cccnc3c3ncccc3c2[nH]1	31%
CC1COCCN1c1cc(C2(S(C)(=N)=O)CC2)nc(-c2ccnc3[nH]ccc23)n1 (configuration not stated) + Cc1[nH]c2ccc(F)cc2c1-c1nc2c3cccnc3c3ncccc3c2[nH]1	110%
COc1ccc([C@@H](O)c2cc(-c3ncnc4cc(N5CCOCC5)ccc34)c(F)cc2Cl)nn1 + Cc1[nH]c2ccc(F)cc2c1-c1nc2c3cccnc3c3ncccc3c2[nH]1	85.4%
